Test results from PMC6792352, “Limited Chemical Structural Diversity Found to Modulate Thyroid Hormone Receptor in the Tox21 Chemical Library” (Environmental Health Perspectives, 2019).
Structures can show the parent of a compound that is named as a salt. Non-standard residues stand in square brackets, D forms with d. Residues, ends and D or L forms follow the SMILES beside them. Orn = NCCC[C@H](N)C(=O)O

Test: in vitro
Details: rat, gh3-tre-luc cells, AC50 (uM) modified / 1000

Row | SMILES | CC50 at 24 h
1 | CN(C)C1CCCCC1 [N,N-Dimethylcyclohexylamine] | > 90 µM
2 | CCCCOc1cc(C(=O)OCCN(CC)CC)ccc1N [Benoxinate hydrochloride] | > 20 µM
3 | CN(C)C(=O)Nc1ccc(Oc2ccc(Cl)cc2)cc1 [Chloroxuron] | > 90 µM
4 | C#C[C@]1(O)CC[C@H]2[C@@H]3CCC4=CC(=O)CC[C@@H]4[C@H]3CC[C@@]21C [Norethindrone] | 59.2 µM
5 | OCCOC[C@H]1O[C@H](OCCO)[C@H](OCCO)[C@@H](OCCO)[C@@H]1OCCO [Hydroxyethyl starch] | > 50 µM
6 | COc1ccccc1Oc1c(NS(=O)(=O)c2ccc(C(C)(C)C)cc2)nc(-c2ncccn2)nc1OCCO [Bosentan] | > 50 µM
7 | O=C(Cl)c1ccc(F)c(Cl)c1 [3-Chloro-4-fluorobenzoyl chloride] | > 90 µM
8 | NC(=O)CCCCC1CCSS1 (stereo not drawn) [alpha-Lipoic acid amide] | > 50 µM
9 | CC(C)C[C@@H]1NC(=O)[C@H](CCCN)NC(=O)[C@H](C(C)C)NC(=O)[C@@H]2CCCN2C(=O)[C@@H](Cc2ccccc2)NC(=O)[C@H](CC(C)C)NC(=O)[C@H](CCCN)NC(=O)[C@H](C(C)C)NC(=O)[C@@H]2CCCN2C(=O)[C@@H](Cc2ccccc2)NC1=O [Gramicidin S] (cyclo(L[dF]PV[Orn]L[dF]PV[Orn])) | 3.05 µM
10 | NC(=O)N(O)[C@@H]1COc2cc(OCc3ccccc3)ccc21 [SB202235] | > 90 µM
11 | COc1ccc(C=O)cc1 [4-Methoxybenzaldehyde] | > 90 µM
12 | O=C(O)c1cc(O)c2c(c1)C(=O)c1cccc(O)c1C2=O [Rhein] | > 90 µM
13 | O=C(c1ccccc1)c1ccccc1 [Benzophenone] | > 50 µM
14 | CS(=O)(=O)c1ccc([C@@H](O)[C@@H](CF)NC(=O)C(Cl)Cl)cc1 [Florfenicol] | > 20 µM
15 | CC(N)CN (centres unmarked) [1,2-Diaminopropane] | > 100 µM
16 | OC(c1ccc(Cl)cc1)(c1ccc(Cl)cc1)c1cccnc1 [Parinol] | 64.3 µM
17 | O=C1Cc2ccccc2N1c1c(Cl)cccc1Cl [1-(2,6-Dichlorophenyl)-2-indolinone] | > 90 µM
18 | N#CC(C#N)=NNc1cccc(Cl)c1 [Carbonyl cyanide chlorophenylhydrazone] | 1.97 µM
19 | O=c1cc(-c2ccccc2)oc2cc(O)cc(O)c12 [Chrysin] | 62.4 µM
20 | CC(C)NC(=O)N1CC(=O)N(c2cc(Cl)cc(Cl)c2)C1=O [Iprodione] | > 90 µM
21 | CCC[C@H](N[C@@H](C)C(=O)N1[C@H](C(=O)O)C[C@@H]2CCCC[C@@H]21)C(=O)OCC [Perindopril] | > 50 µM
22 | CCCCCCCCCCCCCC[n+]1ccccc1 [Tetradecylpyridinium bromide] | 6.51 µM
23 | CC(C)=CCC/C(C)=C/CC/C(C)=C/CC/C(C)=C/CC1=C(C)C(=O)c2ccccc2C1=O [Menatetrenone] | > 50 µM

Row | SMILES | CC50 at 24 h
24 | O=C1c2ccccc2C(=O)C1c1ccc(Br)cc1 [Bromindione] | > 50 µM
25 | O=c1c(O)c(-c2ccc(O)c(O)c2)oc2cc(O)cc(O)c12 [Quercetin dihydrate] | 57 µM
26 | Clc1cccc(Cl)c1Cl [1,2,3-Trichlorobenzene] | > 90 µM
27 | NNC(=O)OCc1ccccc1 [Hydrazinecarboxylic acid, phenylmethyl ester] | > 90 µM
28 | CC(=O)C=CC1=C(C)CCCC1(C)C [4-(2,6,6-Trimethyl-cyclohex-1-enyl)-but-3-en-2-one] | > 90 µM
29 | O=S(=O)(c1ccc(Cl)cc1)c1ccc(Cl)cc1 [4,4'-Dichlorodiphenyl sulfone] | > 90 µM
30 | CO[C@@H]1[C@@H](OC)[C@H](C)[C@@](O)(CC(=O)O)O[C@H]1[C@H](C)[C@H]1O[C@@]2(CC[C@@](C)([C@H]3CC[C@@](C)([C@@H]4O[C@@H]([C@H]5O[C@](C)(O)[C@H](C)C[C@@H]5C)C[C@@H]4O[C@@H]4C[C@H](OC)[C@@H](OC)[C@H](C)O4)O3)O2)C[C@H](O)[C@H]1C [Maduramicin ammonium] | 0.49 µM
31 | Cc1cc(=O)n(-c2ccccc2)n1C [Phenazone] | > 50 µM
32 | CC(Oc1ccc(Cl)cc1Cl)C(=O)O (centres unmarked) [Dichlorprop] | > 90 µM
33 | CC1=C2[C@H](/C=C(\C)C(=O)O)CC[C@@H](C)[C@H]2CC1 [Valerenic acid] | > 100 µM
34 | CCO[Si](CC)(OCC)OCC [Ethyltriethoxysilane] | > 90 µM
35 | Nc1ccc(S(=O)(=O)O)c(N)c1 [2,4-Diaminobenzenesulfonic acid] | > 90 µM
36 | O=[N+]([O-])c1ccc2c(c1)Cc1ccccc1-2 [2-Nitrofluorene] | > 90 µM
37 | COC(=O)[C@@H](N)Cc1ccc(O)c(O)c1 [Methyl L-DOPA hydrochloride] | 19.9 µM
38 | CCC1=C[C@@H]2CN(C1)Cc1c([nH]c3ccccc13)[C@@](C(=O)OC)(c1cc3c(cc1OC)N(C)[C@H]1[C@@](O)(C(=O)OC)[C@H](OC(C)=O)[C@]4(CC)C=CCN5CC[C@]31[C@@H]54)C2 [Vinorelbine tartrate] | 6.67 µM
39 | CCCc1nc2c(C)cc(-c3nc4ccccc4n3C)cc2n1Cc1ccc(-c2ccccc2C(=O)O)cc1 [Telmisartan] | > 50 µM
40 | C=CCc1cc(S(=O)(=O)c2ccc(O)c(CC=C)c2)ccc1O [4,4'-Sulfonylbis[2-(prop-2-en-1-yl)phenol]] | 49.1 µM
41 | CC(C)NCC1CCc2cc(CO)c([N+](=O)[O-])cc2N1 (centres unmarked) [Oxamniquine] | > 20 µM
42 | c1ccc2c(c1)c1cccc3ccc4cccc2c4c31 [Benzo(e)pyrene] | > 90 µM
43 | CCOC(C)(C)C [Ethyl T-butyl ether] | > 90 µM
44 | Sc1nc(S)nc(S)n1 [Trisodium 2,4,6-trithioxo-1,3,5-triazinane-1,3,5-triide] | > 50 µM
45 | CC(C)(O)c1ccccc1 [2-Phenylpropan-2-ol] | > 90 µM
46 | CCN1CCCC1CNC(=O)c1cc(S(=O)(=O)CC)c(N)cc1OC (centres unmarked) [Amisulpride] | > 50 µM

Row | SMILES | CC50 at 24 h
47 | COc1cc(C(C)(C)C)c(O)c(C(C)(C)C)c1 [2,6-Di-tert-butyl-4-methoxyphenol] | 48.1 µM
48 | Cn1c(=O)c2c(ncn2CC2OCCO2)n(C)c1=O [Doxofylline] | > 50 µM
49 | C/C=C/C=C/COC(=O)C(C)C [2,4-Hexadienyl isobutyrate] | 75.5 µM
50 | COc1cc(Cl)c(OC)cc1N [2,5-Dimethoxy-4-chloroaniline] | > 90 µM
51 | CC(=O)Nc1ccc(O)cc1 [Acetaminophen] | > 50 µM
52 | CCN(CC)CCNc1ccc(CNC=O)c2sc3ccc(OC)cc3c(=O)c12 [SR271425] | 11.7 µM
53 | CSCCCN=C=S [3-(Methylthio)propyl isothiocyanate] | > 90 µM
54 | C[C@H]1c2cccc(O)c2C(=O)C2=C(O)[C@]3(O)C(=O)C(C(N)=O)=C(O)[C@@H](N(C)C)[C@@H]3[C@@H](O)[C@@H]21 [Doxycycline hydrochloride] | > 50 µM
55 | CCCCCCCCCCCCCCCC [Hexadecane] | > 90 µM
56 | CCCCN(CCCC)CCC(O)c1cc2c(Cl)cc(Cl)cc2c2cc(C(F)(F)F)ccc12 (centres unmarked) [Halofantrine hydrochloride] | > 20 µM
57 | N#CSCSc1nc2ccccc2s1 [2-(Thiocyanomethylthio)benzothiazole] | 3.06 µM
58 | O=C(OCc1ccccc1)c1ccc(O)cc1 [Benzylparaben] | > 90 µM
59 | Cc1ccc2c(c1)C1CN(C)CCC1N2 (centres unmarked) [Dicarbine] | > 50 µM
60 | CCC(C)(C)c1cc(-n2nc3ccccc3n2)c(O)c(C(C)(C)CC)c1 [2-(2H-Benzotriazol-2-yl)-4,6-bis(1,1-dimethylpropyl)phenol] | > 90 µM
61 | Nc1c(Cl)cc(Cl)cc1[N+](=O)[O-] [2,4-Dichloro-6-nitroaniline] | > 90 µM
62 | Cc1ccc(C(C)C)cc2c(C)ccc1-2 [Guaiazulene] | > 50 µM
63 | COC(=O)CC(C)=O [Methyl acetoacetate] | > 90 µM
64 | CC1=C[C@H](O)CC(C)(C)[C@H]1/C=C/C(C)=C/C=C/C(C)=C/C=C/C=C(C)/C=C/C=C(C)/C=C/C1=C(C)C[C@@H](O)CC1(C)C [Lutein] | 28.4 µM
65 | O=[N+]([O-])c1ccccc1C(F)(F)F [1-Nitro-2-(trifluoromethyl)benzene] | > 90 µM
66 | O=C(Nc1ccc(Oc2ccc(Cl)cc2)c(Cl)c1)c1cc(I)cc(I)c1O [Rafoxanide] | 36.2 µM
67 | c1cc(OCC2CO2)cc(OCC2CO2)c1 (centres unmarked) [Diglycidyl resorcinol ether] | 17.3 µM
68 | CCC(=O)OC [Methyl propanoate] | > 90 µM

Same assay, conditions: rat, gh3-tre-luc cells, AC50 (uM) modified / 1000, Tox21_110001=Tox21_112426; viability, 1 nM T3 present, 24 h

Row | SMILES | CC50 at 24 h
69 | FC(F)OC(F)(F)C(F)Cl (centres unmarked) [Enflurane] | > 50 µM

Same assay, conditions: rat, gh3-tre-luc cells, AC50 (uM) modified / 1000, Tox21_110001=Tox21_112893; viability, 1 nM T3 present, 24 h

Row | SMILES | CC50 at 24 h
70 | CCCN(CCC)CCc1c[nH]c2ccccc12 [N,N-Dipropyltryptamine hydrochloride] | 39.8 µM

Same assay, conditions: rat, gh3-tre-luc cells, AC50 (uM) modified / 1000, Tox21_110001=Tox21_113018; viability, 1 nM T3 present, 24 h

Row | SMILES | CC50 at 24 h
71 | C[C@H]1CNCCc2ccc(Cl)cc21 [Lorcaserin] | > 50 µM

Same assay, conditions: rat, gh3-tre-luc cells, AC50 (uM) modified / 1000, Tox21_110001=Tox21_200105; viability, 1 nM T3 present, 24 h

Row | SMILES | CC50 at 24 h
72 | Oc1cc(Cl)c(Cl)c(Cl)c1Cl [2,3,4,5-Tetrachlorophenol] | 29.2 µM

Same assay, conditions: rat, gh3-tre-luc cells, AC50 (uM) modified / 1000, Tox21_110001=Tox21_200121; viability, 1 nM T3 present, 24 h

Row | SMILES | CC50 at 24 h
73 | Brc1cccc(-c2ccccc2)c1 [3-Bromobiphenyl] | > 90 µM

Same assay, conditions: rat, gh3-tre-luc cells, AC50 (uM) modified / 1000, Tox21_110001=Tox21_200166; viability, 1 nM T3 present, 24 h

Row | SMILES | CC50 at 24 h
74 | FC(F)OC(F)(F)C(F)Cl (centres unmarked) [Enflurane] | > 90 µM

Same assay, conditions: rat, gh3-tre-luc cells, AC50 (uM) modified / 1000, Tox21_110001=Tox21_201442; viability, 1 nM T3 present, 24 h

Row | SMILES | CC50 at 24 h
75 | O=[N+]([O-])c1ccccc1O [2-Nitrophenol] | > 90 µM

Same assay, conditions: rat, gh3-tre-luc cells, AC50 (uM) modified / 1000, Tox21_110001=Tox21_202220; viability, 1 nM T3 present, 24 h

Row | SMILES | CC50 at 24 h
76 | Oc1ccc(-c2ccccc2)cc1 [4-Phenylphenol] | 62.2 µM

Same assay, conditions: rat, gh3-tre-luc cells, AC50 (uM) modified / 1000, Tox21_110001=Tox21_302734; viability, 1 nM T3 present, 24 h

Row | SMILES | CC50 at 24 h
77 | Oc1ccc(-c2ccccc2)cc1 [4-Phenylphenol] | > 90 µM
